Measurements published in US5202315A, “Cephalosporin compounds” (Lucky, Ltd., priority 1989, dated 1993).
≈ marks a conversion by molar mass, not a printed value.

Columns and labels:
[1] = In-vivo absorbency (plasma concentrations & pharmacokinetic parameters); set-up: species or system SD rat (male); conditions: rat, in vivo, iv, 20 mg/kg
Text: The blood samples from the femoral vein of the rats were taken every hour after administration, and analyzed by bio-assay(agar well method).
Tested animal: SD male Rat (220~340 g)

Klebsiella pneumoniae = assay: Antibacterial activity against clinically isolated strains, MIC; format: cell-based
[2] = In-vivo absorbency (plasma concentrations & pharmacokinetic parameters); set-up: species or system SD rat (male); conditions: rat, in vivo, iv, 20 mg/kg; remark: listed apart in the source
[3] = tested on: Staphylococcus aureus methicillin susceptible; assay: Antibacterial activity against clinically isolated strains, MIC; format: cell-based
[4] = tested on: Staphylococcus aureus methicillin resistant; assay: as above; format: cell-based
Pseudomonas aeruginosa = assay: as above; format: cell-based
Escherichia coli = assay: as above; format: cell-based
[5] = tested on: Acinetobacter calcoaceticus ATCC 15473; assay: Antibacterial activity, MIC; format: cell-based; conditions: ATCC15473, 20 h
Method in brief: (§1)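 Agar two-fold dilution method: compound serially diluted two-fold in Mueller-Hinton agar, spotted with 2 μl of a 10^7 CFU/ml inoculum of each standard strain, then incubated at 37 °C for 20 h.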

[6] = tested on: Staphylococcus epidermidis ATCC 12228; assay: Antibacterial activity, MIC; format: cell-based; conditions: ATCC12228, 20 h
Method in brief: as §1

[7] = tested on: Providencia rettgeri ATCC 9250; assay: Antibacterial activity, MIC; format: cell-based; conditions: ATCC9250, agar two-fold dilution, 37° C., 20 hours
Method in brief: as §1

[8] = tested on: Micrococcus luteus ATCC 9341; assay: Antibacterial activity, MIC; format: cell-based; conditions: ATCC9341, 20 h
Method in brief: as §1

[9] = tested on: Citrobacter freundii ATCC 8090; assay: Antibacterial activity, MIC; format: cell-based; conditions: ATCC8090, 20 h
Method in brief: as §1

[10] = tested on: Pseudomonas aeruginosa ATCC 10145; assay: Antibacterial activity, MIC; format: cell-based; conditions: ATCC10145, 20 h
Method in brief: as §1

[11] = tested on: Proteus mirabilis ATCC 25933; assay: Antibacterial activity, MIC; format: cell-based; conditions: ATCC25933, 20 h
Method in brief: as §1

[12] = tested on: Morganella morganii ATCC 8076h; assay: Antibacterial activity, MIC; format: cell-based; conditions: ATCC8076H, agar two-fold dilution, 37° C., 20 hours
Method in brief: as §1

[13] = tested on: Shigella flexneri ATCC 11836; assay: Antibacterial activity, MIC; format: cell-based; conditions: ATCC11836, agar two-fold dilution, 37° C., 20 hours
Method in brief: as §1

[14] = tested on: Salmonella typhimurium ATCC 14028; assay: Antibacterial activity, MIC; format: cell-based; conditions: Salmonella enterica, 20 h
Method in brief: as §1

[15] = tested on: Pseudomonas aeruginosa ATCC 27853; assay: Antibacterial activity, MIC; format: cell-based; conditions: ATCC27853, 20 h
Method in brief: as §1

[16] = tested on: Enterobacter cloacae ATCC 27508; assay: Antibacterial activity, MIC; format: cell-based; conditions: ATCC27508, 20 h
Method in brief: as §1

[17] = tested on: Pseudomonas aeruginosa ATCC 25619; assay: Antibacterial activity, MIC; format: cell-based; conditions: ATCC25619, 20 h
Method in brief: as §1

[18] = tested on: Escherichia coli ATCC 10536; assay: Antibacterial activity, MIC; format: cell-based; conditions: ATCC10536, agar two-fold dilution, 37° C., 20 hours
Method in brief: as §1

[19] = tested on: Enterobacter aerogenes ATCC 29751; assay: Antibacterial activity, MIC; format: cell-based; conditions: Klebsiella aerogenes, ATCC29751, 20 h
Method in brief: as §1

[20] = tested on: Klebsiella pneumoniae ATCC 10031; assay: Antibacterial activity, MIC; format: cell-based; conditions: ATCC10031, 20 h
Method in brief: as §1

[21] = tested on: Proteus vulgaris ATCC 6059; assay: Antibacterial activity, MIC; format: cell-based; conditions: ATCC6059, 20 h
Method in brief: as §1

[22] = tested on: Bacillus cereus ATCC 11778; assay: Antibacterial activity, MIC; format: cell-based; conditions: ATCC11778, 20 h
Method in brief: as §1

[23] = tested on: Bacillus megaterium ATCC 9885; assay: Antibacterial activity, MIC; format: cell-based; conditions: Priestia megaterium, ATCC9885, 20 h
Method in brief: as §1

[24] = tested on: Streptococcus faecalis ATCC 29212; assay: Antibacterial activity, MIC; format: cell-based; conditions: Enterococcus faecalis, ATCC29212, 20 h
Method in brief: as §1

[25] = tested on: Shigella sonnei ATCC 11060; assay: Antibacterial activity, MIC; format: cell-based; conditions: ATCC11060, ATCC 11060, agar two-fold dilution, 37° C., 20 hours, read-out: MIC
Method in brief: as §1

[26] = tested on: Staphylococcus aureus ATCC 10537; assay: Antibacterial activity, MIC; format: cell-based; conditions: ATCC10537, 20 h
Method in brief: as §1

[27] = tested on: Serratia marcescens ATCC 27117; assay: Antibacterial activity, MIC; format: cell-based; conditions: ATCC27117, 20 h
Method in brief: as §1

[28] = tested on: Staphylococcus aureus ATCC 6538p; assay: Antibacterial activity, MIC; format: cell-based; conditions: ATCC6538P, 20 h
Method in brief: as §1

[29] = tested on: Escherichia coli ATCC 25922; assay: Antibacterial activity, MIC; format: cell-based; conditions: ATCC25922, agar two-fold dilution, 37° C., 20 hours
Method in brief: as §1

CC(C)(O/N=C(\C(=O)N[C@@H]1C(=O)N2C(C(=O)[O-])=C(C[n+]3ccccc3)CS[C@H]12)c1csc(N)n1)C(=O)O [Ceftazidime, reference compound]
concentration at 1 h [1]: 4700 ng/mL
concentration at 2 h [1]: 1600 ng/mL
MIC50 (Klebsiella pneumoniae): 0.063 µg/mL (≈ 0.115 µM)
MIC90 (Klebsiella pneumoniae): 0.5 µg/mL (≈ 0.915 µM)
AUC [2]: 31100 ng·h/mL
concentration at 1 min [2]: 135000 ng/mL
concentration at 2.5 min [2]: 94000 ng/mL
concentration at 5 min [2]: 71000 ng/mL
concentration at 10 min [2]: 53000 ng/mL
concentration at 20 min [2]: 26000 ng/mL
concentration at 40 min [2]: 10000 ng/mL
MIC50 [3]: 8 µg/mL (≈ 14.6 µM)
MIC90 [3]: 8 µg/mL (≈ 14.6 µM)
MIC50 [4]: 128 µg/mL (≈ 234 µM)
MIC90 [4]: > 128 µg/mL
MIC50 (Pseudomonas aeruginosa): 4 µg/mL (≈ 7.32 µM)
MIC90 (Pseudomonas aeruginosa): 16 µg/mL (≈ 29.3 µM)
MIC50 (Escherichia coli): 0.13 µg/mL (≈ 0.238 µM)
MIC90 (Escherichia coli; 38 clinical isolates, broth microdilution test): 0.13 µg/mL (≈ 0.238 µM)
MIC [5]: 4 µg/mL (≈ 7.32 µM)
MIC [6]: 8 µg/mL (≈ 14.6 µM)
MIC [7]: ≤ 0.008 µg/mL
MIC [8]: 1 µg/mL (≈ 1.83 µM)
MIC [9]: 0.25 µg/mL (≈ 0.457 µM)
MIC [10]: 2 µg/mL (≈ 3.66 µM)
MIC [11]: 0.063 µg/mL (≈ 0.115 µM)
MIC [12]: 0.016 µg/mL (≈ 0.0293 µM)
MIC [13]: 0.063 µg/mL (≈ 0.115 µM)
MIC [14]: 0.25 µg/mL (≈ 0.457 µM)
MIC [15]: 1 µg/mL (≈ 1.83 µM)
MIC [16]: 0.063 µg/mL (≈ 0.115 µM)
MIC [17]: 1 µg/mL (≈ 1.83 µM)
MIC [18]: 0.13 µg/mL (≈ 0.238 µM)
MIC [19]: 8 µg/mL (≈ 14.6 µM)
MIC [20]: 0.13 µg/mL (≈ 0.238 µM)
MIC [21]: 0.063 µg/mL (≈ 0.115 µM)
MIC [22]: 128 µg/mL (≈ 234 µM)
MIC [23]: 0.25 µg/mL (≈ 0.457 µM)
MIC [24]: > 128 µg/mL
MIC [25]: 0.13 µg/mL (≈ 0.238 µM)
MIC [26]: 8 µg/mL (≈ 14.6 µM)
MIC [27]: 0.13 µg/mL (≈ 0.238 µM)
MIC [28]: 16 µg/mL (≈ 29.3 µM)
MIC [29]: 0.13 µg/mL (≈ 0.238 µM)
